# In ChEMBL document CHEMBL4376803, “Recent Advances in the Exploration of Therapeutic Analogues of Gramicidin S, an Old but Still Potent Antimicrobial Peptide” (J Med Chem, 2019):
# Numbered stars: 1 amine (or outer) side, 2 acyl side, 3 side chain; on linkers, the order of the positions; unused ones are H or OH. Square brackets hold non-standard residues; d marks the D form. Peptide text beside a SMILES is read from it. X1 = Cc1nc([C@@H](Cc2ccccc2)N[*:1])c(C(=O)[*:2])s1; Orn = NCCC[C@H](N)C(=O)O
# Legend:
# Staphylococcus aureus [1] = assay: Antibacterial activity against Staphylococcus aureus ATCC 49975 after 16 to 20 hrs by broth microdilution method; type: functional
# Pseudomonas aeruginosa [2] = assay: Antibacterial activity against Pseudomonas aeruginosa ATCC 9027 incubated for 48 hrs; type: functional; conditions: ATCC 9027, 48 h
# Escherichia coli [3] = assay: Antibacterial activity against Escherichia coli ATCC 8739 incubated for 48 hrs; type: functional; conditions: ATCC 8739, 48 h
# Bacillus subtilis = assay: Antibacterial activity against Bacillus subtilis CIP 52.65 incubated for 48 hrs; type: functional; conditions: CIP 52.65, 48 h
# Staphylococcus aureus [4] = assay: Antibacterial activity against Staphylococcus aureus ATCC 6538 incubated for 48 hrs; type: functional; conditions: ATCC 6538, 48 h
# [5] = Haemolytic activity in human erythrocytes at 100 ug/ml after 30 mins relative to control; type: ADME, cell-based, Erythrocyte; conditions: read-out: Activity
# Lipopolysaccharide (LPS) = assay: Displacement of Dansyl-polymyxin from Pseudomonas aeruginosa LPS by fluorescence method; conditions: read-out: I50
# [6] = Therapeutic index, ratio of HD100 for hemolytic activity in human RBC to MIC against Pseudomonas aeruginosa H187; type: toxicity; conditions: human red blood cells, read-out: TI
# Enterococcus faecalis [7] = assay: Antibacterial activity against Enterococcus faecalis ATCC 29212 after overnight incubation by microtiter dilution method; type: functional
# Staphylococcus aureus [8] = assay: Antibacterial activity against Staphylococcus aureus K147 after overnight incubation by microtiter dilution method; type: functional
# [9] = Therapeutic index, ratio of HD100 for hemolytic activity in human RBC to MIC against Candida albicans; type: toxicity; conditions: human red blood cells, read-out: TI
# [10] = Therapeutic index, ratio of HD100 for hemolytic activity in human RBC to MIC against Escherichia coli UB1005; type: toxicity; conditions: human red blood cells, read-out: TI
# Erythrocyte = assay: Haemolytic activity in human RBC after 24 hrs by visual method; type: ADME, cell-based
# [11] = Therapeutic index, ratio of HD100 for hemolytic activity in human RBC to MIC against Enterococcus faecalis ATCC 29212; type: toxicity; conditions: human red blood cells, read-out: TI
# Escherichia coli [12] = assay: Antibacterial activity against Escherichia coli UB1005 after overnight incubation by microtiter dilution method; type: functional
# Candida albicans = assay: Antibacterial activity against Candida albicans after overnight incubation by microtiter dilution method; type: functional
# Pseudomonas aeruginosa [13] = assay: Antibacterial activity against Pseudomonas aeruginosa H187 after overnight incubation by microtiter dilution method; type: functional
# [14] = Therapeutic index, ratio of HD100 for hemolytic activity in human RBC to MIC against Staphylococcus aureus K147; type: toxicity; conditions: human red blood cells, read-out: TI
# Enterococcus faecalis [15] = assay: Antibacterial activity against Enterococcus faecalis ATCC 29212 after 24 hrs; type: functional; conditions: ATCC 29212, 24 h
# Bacillus cereus = assay: Antibacterial activity against Bacillus cereus ATCC 11778 incubated for 24 hrs; type: functional; conditions: ATCC 11778, 24 h
# Staphylococcus aureus [16] = assay: Antibacterial activity against Staphylococcus aureus ATCC 29213 after 24 hrs; type: functional; conditions: ATCC 29213, 24 h
# Escherichia coli [17] = assay: Antibacterial activity against Escherichia coli ATCC 25922 after 24 hrs; type: functional; conditions: ATCC 25922, 24 h
# [18] = test system: Staphylococcus epidermidis; assay: Antibacterial activity against Staphylococcus epidermidis ATCC 12228 incubated for 24 hrs; type: functional; conditions: ATCC 12228, 24 h
# Pseudomonas aeruginosa [19] = assay: Antibacterial activity against Pseudomonas aeruginosa ATCC 27853 incubated for 24 hrs; type: functional; conditions: ATCC 27853, 24 h
# [20] = Haemolytic activity in human erythrocytes; type: ADME, cell-based, Erythrocyte; conditions: human erythrocytes
# Staphylococcus xylosus = assay: Antibacterial activity against Staphylococcus xylosus; type: functional
# Staphylococcus aureus [21] = assay: Antibacterial activity against Staphylococcus aureus; type: functional
# [22] = test system: Staphylococcus epidermidis; assay: Antibacterial activity against Staphylococcus epidermidis; type: functional
structure (smiles),measurement,setting,value
CC(C)C[C@@H]1NC(=O)[C@@H](CCCN)NC(=O)[C@H](C(C)C)NC(=O)c2cccc(c2)/N=N/c2ccc(cc2)CNC(=O)[C@H](CCCN)NC(=O)[C@H](C(C)C)NC(=O)[C@@H]2CCCN2C(=O)[C@@H](Cc2ccccc2)NC1=O,MIC,Staphylococcus aureus [1],256 µg/mL
Cc1nc2c(s1)C(=O)N[C@@H](C(C)C)C(=O)N[C@@H](CCCN)C(=O)N[C@@H](CC(C)C)C(=O)N[C@H](Cc1ccccc1)c1nc(C)sc1C(=O)N[C@@H](C(C)C)C(=O)N[C@@H](CCCN)C(=O)N[C@@H](CC(C)C)C(=O)N[C@@H]2Cc1ccccc1 (cyclo(L[X1]V[Orn]L[X1]V[Orn])),MIC,Pseudomonas aeruginosa [2],> 50 µg/mL
same,MIC,Escherichia coli [3],25 µg/mL
same,MIC,Bacillus subtilis,3.12 µg/mL
same,MIC,Staphylococcus aureus [4],4.68 µg/mL
same,"hemolysis at 0.5 h, 100 ug/ml",[5],14%
CC(C)C[C@@H]1NC(=O)[C@@H](CCCN)NC(=O)[C@H](C(C)C)NC(=O)c2cccc(c2)/N=N\c2ccc(cc2)CNC(=O)[C@H](CCCN)NC(=O)[C@H](C(C)C)NC(=O)[C@@H]2CCCN2C(=O)[C@@H](Cc2ccccc2)NC1=O,MIC,Staphylococcus aureus [1],64 µg/mL
CC(C)C[C@@H]1NC(=O)[C@H](CCCCN)NC(=O)[C@H](C(C)C)NC(=O)[C@@H]2CCCN2C(=O)[C@@H](Cc2ccc(O)cc2)NC(=O)[C@H](CC(C)C)NC(=O)[C@H](CCCCN)NC(=O)[C@H](C(C)C)NC(=O)[C@H](CCCCN)NC(=O)[C@H](CC(C)C)NC(=O)[C@@H]2CCCN2C(=O)[C@@H](Cc2ccc(O)cc2)NC(=O)[C@H](C(C)C)NC(=O)[C@@H](CCCCN)NC1=O (cyclo(KL[dK]V[dY]PLKVKL[dY]PV)),IC50,Lipopolysaccharide (LPS),93 µM
same,selectivity ratio,[6],8
same,MIC,Enterococcus faecalis [7],1.5 µg/mL
same,MIC,Staphylococcus aureus [8],100 µg/mL
same,selectivity ratio,[9],32
same,selectivity ratio,[10],32
same,HD100,Erythrocyte,200 µg/mL
same,selectivity ratio,[11],133
same,MIC,Escherichia coli [12],6.2 µg/mL
same,MIC,Candida albicans,6.2 µg/mL
same,MIC,Pseudomonas aeruginosa [13],25 µg/mL
same,selectivity ratio,[14],2
CC(C)C[C@@H]1NC(=O)[C@H](CCCN)NC(=O)[C@H](C(C)C)NC(=O)[C@@H]2CCCN2C(=O)[C@@H](Cc2ccccc2)NC(=O)[C@H](CC(C)C)NC(=O)[C@H](CCCN)NC(=O)[C@H](C(C)C)NC(=O)[C@H]2CC[C@H](OCc3ccccc3)[C@@H](CNC1=O)O2,MIC,Enterococcus faecalis [15],16 µg/mL
same,MIC,Bacillus cereus,8 µg/mL
same,MIC,Staphylococcus aureus [16],16 µg/mL
same,MIC,Escherichia coli [17],32 µg/mL
same,MIC,[18],8 µg/mL
same,MIC,Pseudomonas aeruginosa [19],> 64 µg/mL
CC(C)C[C@@H]1NC(=O)[C@H](CCCN)NC(=O)[C@H](C(C)C)NC(=O)[C@@H]2CCCN2C(=O)[C@@H](Cc2ccccc2)NC(=O)[C@H](CC(C)C)NC(=O)[C@H](CCCN)NC(=O)[C@H](C(C)C)NC(=O)C2=CC3=C4CCCC4=C4C=C(SC4(C)C3(C)S2)C(=O)NNC1=O (some centres undefined) [listing 1 of 2 here],HC50,[20],58 µg/mL
CC(C)C[C@@H]1NC(=O)[C@H](CCCN)NC(=O)[C@H](C(C)C)NC(=O)[C@@H]2CCCN2C(=O)[C@@H](Cc2ccccc2)NC(=O)[C@H](CC(C)C)NC(=O)[C@H](CCCN)NC(=O)[C@H](C(C)C)NC(=O)C2=CC3=C4CCCC4=C4C=C(SC4(C)C3(C)S2)C(=O)NNC1=O (some centres undefined) [listing 2 of 2 here],MIC,Staphylococcus xylosus,32 µg/mL
same,MIC,Staphylococcus aureus [21],16 µg/mL
same,MIC,[22],32 µg/mL
